# Laboratory results reported in PubChem BioAssay AID220 (DTP/NCI, 2004).
# Where “and” joins values, the source holds several entries; their conditions need not be identical. Equal entries are not always repeated. Inconclusive results are not listed.
# Tested on: CD8F1 mice, subcutaneous mammary adenocarcinoma, T/C%
# Assay: NCI In Vivo Anticancer Drug Screen. Data for tumor model Mammary Adenocarcinoma CD8F1 (subcutaneous) in CD8F1
# Conditions: higher = larger tumour
# Method in brief: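 Antitumor activity is assessed in transplantable-tumor mice by comparing the treated group with a vehicle-treated control group. Survival or tumor size serves as the measure, reported as T divided by C.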
# [1] = endpoint: median tumor weight (est.), dose: 25.0 mg/kg/injection, schedule: Q07DX005 (ip), vehicle: saline
# [2] = endpoint: median tumor weight (est.), dose: 100.0 mg/kg/injection, schedule: Q07DX005 (ip), vehicle: saline
# [3] = endpoint: median tumor weight (est.), dose: 200.0 mg/kg/injection, schedule: Q07DX005 (ip), vehicle: saline
# [4] = endpoint: median tumor weight change, dose: 62.5 mg/kg/injection, schedule: Q01DX001 (ip), vehicle: saline with Tween-80
# [5] = endpoint: median tumor weight change, dose: 125.0 mg/kg/injection, schedule: Q01DX001 (ip), vehicle: saline with Tween-80
# [6] = endpoint: median tumor weight change, dose: 250.0 mg/kg/injection, schedule: Q01DX001 (ip), vehicle: saline with Tween-80
# [7] = endpoint: median tumor weight change, dose: 500.0 mg/kg/injection, schedule: Q01DX001 (ip), vehicle: saline with Tween-80
# [8] = endpoint: median tumor weight (est.), dose: 50.0 mg/kg/injection, schedule: Q07DX005 (ip), vehicle: saline
# [9] = endpoint: median tumor weight (est.), dose: 400.0 mg/kg/injection, schedule: Q07DX005 (ip), vehicle: saline
# [10] = endpoint: median tumor weight (est.), dose: 12.5 mg/kg/injection, schedule: Q07DX005 (ip), vehicle: saline with Tween-80
# [11] = endpoint: median tumor weight (est.), dose: 25.0 mg/kg/injection, schedule: Q07DX005 (ip), vehicle: saline with Tween-80
# [12] = endpoint: median tumor weight change, dose: 6.25 mg/kg/injection, schedule: Q01DX001 (ip), vehicle: saline with Tween-80
# [13] = endpoint: median tumor weight change, dose: 12.5 mg/kg/injection, schedule: Q01DX001 (ip), vehicle: saline with Tween-80
# [14] = endpoint: median tumor weight change, dose: 250.0 mg/kg/injection, schedule: Q01DX001 (ip), vehicle: saline
# [15] = endpoint: median tumor weight change, dose: 1000.0 mg/kg/injection, schedule: Q01DX001 (ip), vehicle: saline
smiles,measurement,setting,value
CSC1SCC2C(=O)N(C)C(C(C)C)C(=O)OCC(NC(=O)c3cnc4ccccc4n3)C(=O)NC(C)C(=O)N(C)C1C(=O)N(C)C(C(C)C)C(=O)OCC(NC(=O)c1cnc3ccccc3n1)C(=O)NC(C)C(=O)N2C (configuration not stated),T/C,"endpoint: mean tumor weight, dose: 7.5 micrograms/kg/injection, schedule: Q07DX005 (ip), vehicle: saline",67 % of control
same,T/C,"endpoint: mean tumor weight, dose: 15.0 micrograms/kg/injection, schedule: Q07DX005 (ip), vehicle: saline",83 % of control
same,T/C,"endpoint: median tumor weight (est.), dose: 7.5 micrograms/kg/injection, schedule: Q07DX005 (ip), vehicle: saline",82 % of control
same,T/C,"endpoint: median tumor weight (est.), dose: 15.0 micrograms/kg/injection, schedule: Q07DX005 (ip), vehicle: saline",67 % of control
same,T/C,"endpoint: median tumor weight (est.), dose: 30.0 micrograms/kg/injection, schedule: Q07DX005 (ip), vehicle: saline",97 % of control
same,T/C,"endpoint: median tumor weight (est.), dose: 60.0 micrograms/kg/injection, schedule: Q07DX005 (ip), vehicle: saline",117 % of control
same,T/C,"endpoint: median tumor weight (est.), dose: 120.0 micrograms/kg/injection, schedule: Q07DX005 (ip), vehicle: saline",76 % of control
C[N+](C)(C)c1ncnc2nc[nH]c12,T/C,[1],194 % of control
same,T/C,[2],259 % of control
same,T/C,[3],186 % of control
O=C1[C@H]2CCC[C@H]2[C@H]2CCC[C@@H]12,T/C,[4],51 % of control
same,T/C,[5],44 % of control
same,T/C,[6],60 % of control
same,T/C,[7],35 % of control
Cc1ccccc1N(CC1CO1)CC1CO1 (configuration not stated),T/C,[8],74 % of control
same,T/C,[2],79 % of control
same,T/C,[3],105 % of control
same,T/C,[9],63 % of control
Cc1cc(NCCCCCCCNc2cc(C)nc3cc(N)ccc23)c2ccc(N)cc2n1,T/C,"endpoint: median tumor weight (est.), dose: 3.12 mg/kg/injection, schedule: Q07DX005 (ip), vehicle: saline with Tween-80",89 % of control
same,T/C,"endpoint: median tumor weight (est.), dose: 6.25 mg/kg/injection, schedule: Q07DX005 (ip), vehicle: saline with Tween-80",111 % of control
same,T/C,[10],79 % of control
same,T/C,[11],26 % of control
same,T/C,"endpoint: median tumor weight change, dose: 31.25 mg/kg/injection, schedule: Q01DX001 (ip), vehicle: saline with Tween-80",28 % of control and 45 % of control
same,T/C,[4],27 % of control
OCC(O)C(O)C(O)C(O)CO (configuration not stated),T/C,"endpoint: median tumor weight change, dose: 75.0 mg/kg/injection, schedule: Q01DX001 (ip), vehicle: saline",20 % of control
same,T/C,"endpoint: median tumor weight change, dose: 150.0 mg/kg/injection, schedule: Q01DX001 (ip), vehicle: saline",40 % of control
same,T/C,"endpoint: median tumor weight change, dose: 300.0 mg/kg/injection, schedule: Q01DX001 (ip), vehicle: saline",39 % of control
same,T/C,"endpoint: median tumor weight change, dose: 600.0 mg/kg/injection, schedule: Q01DX001 (ip), vehicle: saline",32 % of control
same,T/C,"endpoint: median tumor weight change, dose: 1200.0 mg/kg/injection, schedule: Q01DX001 (ip), vehicle: saline",45 % of control
CCOC(=O)Nc1cc2c(c(N)n1)N=C(CN(C)c1ccccc1)CN2,T/C,"endpoint: median tumor weight (est.), dose: 3.12 mg/kg/injection, schedule: Q07DX005 (ip), vehicle: Klucel (hydroxypropylcellulose) (HPC)",268 % of control
same,T/C,"endpoint: median tumor weight (est.), dose: 6.25 mg/kg/injection, schedule: Q07DX005 (ip), vehicle: Klucel (hydroxypropylcellulose) (HPC)",70 % of control
same,T/C,"endpoint: median tumor weight (est.), dose: 25.0 mg/kg/injection, schedule: Q07DX005 (ip), vehicle: Klucel (hydroxypropylcellulose) (HPC)",69 % of control and 79 % of control
C=CCc1cn(C2CC(O)C(CO)O2)c(=O)[nH]c1=O (configuration not stated),T/C,[1],58 % of control
same,T/C,[8],79 % of control
same,T/C,[2],86 % of control
same,T/C,[3],248 % of control
same,T/C,[9],75 % of control
same,T/C,"endpoint: median tumor weight (est.), dose: 800.0 mg/kg/injection, schedule: Q07DX005 (ip), vehicle: saline",79 % of control
O=c1nc(-c2ccco2)sc(=O)[nH]1,T/C,"endpoint: median tumor weight change, dose: 31.25 mg/kg/injection, schedule: Q01DX001 (ip), vehicle: Klucel (hydroxypropylcellulose) (HPC)",123 % of control
same,T/C,"endpoint: median tumor weight change, dose: 62.5 mg/kg/injection, schedule: Q01DX001 (ip), vehicle: Klucel (hydroxypropylcellulose) (HPC)",63 % of control
same,T/C,"endpoint: median tumor weight change, dose: 125.0 mg/kg/injection, schedule: Q01DX001 (ip), vehicle: Klucel (hydroxypropylcellulose) (HPC)",120 % of control
same,T/C,"endpoint: median tumor weight change, dose: 250.0 mg/kg/injection, schedule: Q01DX001 (ip), vehicle: Klucel (hydroxypropylcellulose) (HPC)",53 % of control
CCc1nc(N)nc(N)c1-c1ccc(Cl)c([N+](=O)[O-])c1,T/C,[12],47 % of control
same,T/C,[13],39 % of control
same,T/C,"endpoint: median tumor weight change, dose: 25.0 mg/kg/injection, schedule: Q01DX001 (ip), vehicle: saline with Tween-80",20 % of control
same,T/C,"endpoint: median tumor weight change, dose: 50.0 mg/kg/injection, schedule: Q01DX001 (ip), vehicle: saline with Tween-80",38 % of control
same,T/C,"endpoint: median tumor weight change, dose: 100.0 mg/kg/injection, schedule: Q01DX001 (ip), vehicle: saline with Tween-80",47 % of control
CCCCCCCCCCCCCCCCP(=O)(OCCOCCCCCC)OCCOCCCCCC,T/C,"endpoint: median tumor weight (est.), dose: 3.12 mg/kg/injection, schedule: Q07DX005 (ip), vehicle: saline",118 % of control
same,T/C,"endpoint: median tumor weight (est.), dose: 6.25 mg/kg/injection, schedule: Q07DX005 (ip), vehicle: saline",156 % of control
same,T/C,"endpoint: median tumor weight (est.), dose: 12.5 mg/kg/injection, schedule: Q07DX005 (ip), vehicle: saline",85 % of control
same,T/C,[1],72 % of control
same,T/C,[8],94 % of control
same,T/C,[2],55 % of control
CCC(CC)COC(=O)c1ccccc1C(=O)OCC(CC)CC,T/C,[11],83 % of control
same,T/C,"endpoint: median tumor weight (est.), dose: 200.0 mg/kg/injection, schedule: Q07DX005 (ip), vehicle: saline with Tween-80",65 % of control
same,T/C,"endpoint: median tumor weight (est.), dose: 400.0 mg/kg/injection, schedule: Q07DX005 (ip), vehicle: saline with Tween-80",75 % of control
same,T/C,"endpoint: median tumor weight (est.), dose: 800.0 mg/kg/injection, schedule: Q07DX005 (ip), vehicle: saline with Tween-80",64 % of control
C=C(NC(=O)C(=C)NC(=O)c1csc(C2=NC3c4csc(n4)C4NC(=O)c5csc(n5)C(C(C)(O)C(C)O)NC(=O)C5CSC(=N5)/C(=C/C)NC(=O)C(C(C)O)NC(=O)c5csc(n5)C3(CC2)NC(=O)C(C)NC(=O)C(=C)NC(=O)C(=C)NC(=O)C(C(C)C)NC2C=Cc3c(C(C)O)cc(nc3C2O)C(=O)OC4C)n1)C(N)=O (configuration not stated),T/C,"endpoint: median tumor weight change, dose: 125.0 mg/kg/injection, schedule: Q01DX001 (ip), vehicle: saline",156 % of control
same,T/C,[14],106 % of control
same,T/C,"endpoint: median tumor weight change, dose: 500.0 mg/kg/injection, schedule: Q01DX001 (ip), vehicle: saline",110 % of control
same,T/C,[15],86 % of control
Cl,T/C,[1],93 % of control
same,T/C,[8],91 % of control
same,T/C,[2],67 % of control
same,T/C,[3],93 % of control
same,T/C,[9],48 % of control
COC1(OC)C2C=CC1CC2,T/C,[4],94 % of control
same,T/C,[5],82 % of control
same,T/C,[6],107 % of control
same,T/C,[7],58 % of control
C=C(C)C12CC(C)C34OC(CCCCCCCCCCC)(OC1C3C1OC1(CO)C(O)C1(O)C(=O)C(C)=CC14C)O2 (configuration not stated),T/C,"endpoint: median tumor weight (est.), dose: 100.0 micrograms/kg/injection, schedule: Q07DX005 (ip), vehicle: saline + alcohol",58 % of control
same,T/C,"endpoint: median tumor weight (est.), dose: 200.0 micrograms/kg/injection, schedule: Q07DX005 (ip), vehicle: saline + alcohol",71 % of control
same,T/C,"endpoint: median tumor weight (est.), dose: 400.0 micrograms/kg/injection, schedule: Q07DX005 (ip), vehicle: saline + alcohol",49 % of control
O=C1N[C@@H]2C(=C[C@H](O)[C@@H](O)[C@H]2O)c2cc3c(c(O)c21)OCO3,T/C,"endpoint: median tumor weight change, dose: 3.12 mg/kg/injection, schedule: Q01DX001 (ip), vehicle: saline with Tween-80",75 % of control
same,T/C,[12],90 % of control
same,T/C,[13],60 % of control
COc1cc2c(ccc3c4cc(OC)c(OC)cc4c[n+](C)c23)cc1O,T/C,[14],190 % of control
same,T/C,[15],89 % of control
same,T/C,"endpoint: median tumor weight change, dose: 2000.0 mg/kg/injection, schedule: Q01DX001 (ip), vehicle: saline",121 % of control
C=C(C)C1C2CC3(C)C4(CO4)C4OC4C3(O)C1C(=O)O2 (configuration not stated),T/C,"endpoint: median tumor weight change, dose: 1.25 mg/kg/injection, schedule: Q01DX001 (ip), vehicle: Klucel (hydroxypropylcellulose) (HPC)",85 % of control
Cn1c2nc(=O)n(-c3ccccc3)c(=O)c-2nc2c1CCCC2,T/C,[10],90 % of control
same,T/C,[11],108 % of control
same,T/C,"endpoint: median tumor weight (est.), dose: 50.0 mg/kg/injection, schedule: Q07DX005 (ip), vehicle: saline with Tween-80",119 % of control
same,T/C,"endpoint: median tumor weight (est.), dose: 100.0 mg/kg/injection, schedule: Q07DX005 (ip), vehicle: saline with Tween-80",100 % of control
CCCCC[C@H](O)/C=C/[C@@H]1[C@@H](C/C=C\CCCC(=O)O)[C@@H](O)C[C@H]1O,T/C,"endpoint: mean tumor weight, dose: 160.0 mg/kg/injection, schedule: Q01DX001 (iv), vehicle: saline",93 % of control
same,T/C,"endpoint: mean tumor weight, dose: 320.0 mg/kg/injection, schedule: Q01DX001 (iv), vehicle: saline",58 % of control
C=CC12COC(=O)C(=C)C1C1OC(=O)C(=C)C1C(O)C2 (configuration not stated),T/C,"endpoint: mean tumor weight, dose: 5.0 mg/kg/injection, schedule: Q07DX006 (ip), vehicle: saline",78 % of control
